According to US5532229A, “Topical administration of vitamin D to mammals” (priority 1994, dated 1996):
“Also recorded” adds a separate entry of the source.

Experiments:
24-hydroxylase = assay: Experiment 3: 24-hydroxylase in renal mitochondria; assay type: in vivo, rat; conditions: for Renal mitochondria 24-hydroxylase: 6 weeks
Procedure: Male, Wistar rats were obtained at 120-130 g, and placed on a 0.01% calcium, 0.7% phosphate diet that was vitamin D deficient (Teklad Test Diets, Madison, WI) this was for one week to help deplete vitamin D stores. For the next three weeks the rats were fed the vitamin D-deficient diet, but with normal, 0.5%, calcium. Starting with these 3 weeks, the rats were divided into four vitamin D3 -treatment groups, initially, nine rats per group: group a) supplemented once weekly with 0.6 μg vitamin D3 (average dose, 0.08 μg/day); group b) supplemented once every second day with vitamin D3 to provide 2 nmol/day, i.e., each dose was 4 nmol of vitamin D3; group c) supplemented once every second day with vitamin D3 to provide 8 μg/day. The preceding groups all received the vitamin D3 through an infant-feeding tube inserted through the mouth into the stomach. One group, d), received its vitamin D3 in the ethanol applied onto a shaved 2 cm×2 cm patch of skin on the back, this was done every second day to provide vitamin D3 at 8 μg/day. The volume of each dose of vitamin D3 given was adjusted so that the stated doses are per 250 g body weight. Over a second 3-week period while maintaining the described vitamin D3 dosing regimens, diet calcium content was changed weekly and blood sampling was started (that is, changes in calcium and sampling was from weeks 4 to 6, inclusive, of receiving the appropriate vitamin D3 supplement). Diet calcium was first dropped to 0.01% then raised to 1.5% and finally dropped again to 0.01%. For each week of dietary calcium manipulation, blood was obtained at day zero (the day of but just prior to the change in calcium), and days 1, 3, and 7 after the change. During the first week, 0.5 mL of blood was taken on the first two of these days and anticoagulated with heparin, the cells were isolated and resuspended in normal rat plasma and reinjected into the femoral vein. […] For the subsequent samplings, only 0.2-0.3 mL of blood was taken by bleeding from the tail into precalibrated microcentrifuge tubes. In this way, the bleeds prior to sacrifice removed a net total of less than 2 mL of blood, that is, less than or equal to 10% of the blood volume. Samples of daytime urine was collected into microfuge tubes that were fastened to the cones of metabolic collection funnels designed to hang under the wire cages. The cages and cones were rinsed with 0.1 mol/L hydrochloric acid prior to each collection. To eliminate contamination of the urine with diet, stool or water, the rats were placed into these separate cages only during the urine-collection period, until about 1 mL urine was present in the microfuge tube, this was typically within 5 min to one hour.
Biochemical measurements. 1,25(OH)2 D3 in serum was measured by calf-thymus receptor-binding assay after initial purification of 1,25(OH)2 D3 with C18-OH cartridges (5). For the serum volumes that were minimal, serum was measured out in 50 μL increments, and the final result was adjusted for the volume of sample analyzed. To measure 1α-hydroxylase in renal mitochondria, the incubation was as described previously, except the substrate was 20 μmol/L nonradioactive 25(OH)D3. The assay was stopped by addition of 2.5 mL methanol. To monitor recovery of 1,25 (OH)2 D3, 2000 cpm of [^3 H]--1,25(OH)2 D3 were added in 50 μL ethanol prior to further extraction with two additions of 1.25 mL methylene chloride. The methylene chloride layer was taken and evaporated to dryness, redissolved in hexane, isopropanol, methanol (90:9: 1) for purification by HPLC, Zorbax-Sil column. The material eluting as 1,25(OH)2 D3 was evaporated and redissolved in acetonitrile: water for further purification with C18-OH cartridges and quantitation by thymus receptor assay, as described for serum. Renal 24-hydroxylase was measured by incubating mitochondria with [^3 H]-25(OH)D3 as substrate (Vieth and Fraser, J Biol Chem. 254:12455-12460;1979). […]

[1] = Experiment 4: short-term serum 25(OH)D3 response to increasing vitamin D3 doses; assay type: in vivo, rats; conditions: first 48 hours
Procedure: Each point represents the mean ±SEM of 7 normal, 250-g rats;
Toxicity: Short-term responses to increasing doses of vitamin D3 given dermally or by gastric tube.
To compare the efficacy of increasing doses of vitamin D3 in the short term. A fatal oral vitamin D3 dose is 14 days of 2600 μg/day (Sheppard RM and DeLuca HF, Arch Biochem Biophys 1980; 202: 43-55). The present experiment was designed to compare effects of doses up to this level, given by gastric tube or dermally.

[2] = Experiment 5: toxic effects after 2 weeks of high doses of dermal or oral vitamin D3; assay type: in vivo, Male Wistar rats
Procedure: Toxicity: Long-term effects of increasing doses of vitamin D3 given dermally or by gastric tube.
This experiment was to compare potential toxic effects of vitamin D3 given for a 2 wk period, at the near-fatal dose of 800 μg per day by gastric tube, or by dermal administration at 800 μg/day or 2600 μg/day. Another goal was find evidence of saturable dermal uptake by including [^14 C]-vitamin D3 to monitor its removal from the skin at the high doses of vitamin D3.
Male Wistar rats, 190±10 g were obtained and divided into three groups of 7. They were treated for 2 weeks with one the following: 2000 nmol/day of vitamin D3 by gastric tube; 800 μg/day applied to a 2×2 cm patch of skin on the back; 2600 μg/day skin. The day before killing, 66,000 counts per minute of [^14 C]-vitamin D3 was applied along with the dermal dose to permit a determination of uptake from the skin. The rats were killed after two weeks for analysis of serum, urine, kidney, and aorta. The calcium in urine and acid-treated homogenate of kidney was measured by chemical colorimetry; aorta calcium was measured by treating with nitric acid measuring calcium by atomic absorption.

[3] = 50 μg in 10 μL 95% ethanol, shaved skin of rats; cited from earlier work
[4] = 14 days; cited from earlier work

C=C1CC[C@H](O)C/C1=C/C=C1\CCC[C@]2(C)[C@@H]([C@H](C)CCCC(C)C)CC[C@@H]12 [vitamin D3]
difference between the two routes in activities of renal enzymes (24-hydroxylase) (24-hydroxylase; 20 nmol/250 g/day): no significant difference between the two routes
Renal mitochondria 24-hydroxylase (24-hydroxylase; 0.08 μg/day diet): 1.34 pmol/mg/mi
Renal mitochondria 24-hydroxylase (24-hydroxylase; 0.8 μg/day G1 (gastric)): 3.67 pmol/mg/mi
Renal mitochondria 24-hydroxylase (24-hydroxylase; 8 μg/day G1 (gastric)): 8.88 pmol/mg/mi
Renal mitochondria 24-hydroxylase (24-hydroxylase; 8 μg/day dermal): 6.26 pmol/mg/mi
24-hydroxylase in kidney (24-hydroxylase; 8 μg/day, gastric and dermal, vs groups with less vitamin D3): increased 24-hydroxylase in kidney
serum 25(OH)D3 vs dose ([1]; dermal, 800 to 2600 μg): does not parallel the vitamin D3 dose beyond the 800 μg (2000 nmol)/day dose; also recorded: striking plateau
serum 25(OH)D3 vs dose ([1]; gastric, up to 2600 μg): parallels the vitamin D3 dose; also recorded: increased in a direct parallel to the dose
urinary calcium (above the usual rat normal) ([2]; all treatments): > 1 μmol/mmol creatinine
serum calcium (above the normal rat value) ([2]; all treatments, 2 weeks): > 2.4 mmol/L
calcium accumulation in kidney and aorta ([2]; by gastric tube, 2 weeks): substantial in both the kidney and the aorta
Urine Ca/create Day 4 ([2]; dermal 800 μg/day): 7.9
Urine Ca/create Day 13 ([2]; dermal 800 μg/day): 10.0
Weight gain ([2]; dermal 800 μg/day): 91 g/2 wk
Total Aorta Calcium ([2]; dermal 800 μg/day, 2 weeks): < 10 nmol
Total Renal Calcium ([2]; dermal 800 μg/day, 2 weeks): 13.3 µmol/L
Urine Ca/create Day 4 ([2]; dermal 2600 μg/day): 10.3
Urine Ca/create Day 13 ([2]; dermal 2600 μg/day): 10.8
Weight gain ([2]; dermal 2600 μg/day): 76 g/2 wk
Total Aorta Calcium ([2]; dermal 2600 μg/day, 2 weeks): < 10 nmol
Total Renal Calcium ([2]; dermal 2600 μg/day, 2 weeks): 13.3 µmol/L
difference in serum 25(OH)D3 between the two dermal groups ([2]; dermal 800 vs 2600 μg/day): no statistical difference
Weight gain ([2]; dermal, same or higher doses, 2 wk): normal weight gain
calcium accumulation in kidney and aorta ([2]; dermally treated, 2 weeks): no evidence of either effect
Urine Ca/create Day 4 ([2]; gastric 800 μg/day): 12.0
Urine Ca/create Day 13 ([2]; gastric 800 μg/day): 9.9
Weight gain ([2]; gastric 800 μg/day): 7 g/2 wk
Total Aorta Calcium ([2]; gastric 800 μg/day, 2 weeks): 361 nmol
Total Renal Calcium ([2]; gastric 800 μg/day, 2 weeks): 77 µmol/L
serum 1,25(OH)2 D3, gastric vs skin groups ([2]; gastric, 2 weeks): lower serum 1,25(OH)2 D3 concentrations than with either skin group
Weight gain ([2]; near-toxic gastric dose, 2 wk): prevented the rats from gaining weight
response (intestinal calcium transport and serum calcium) [3]: no response was detected
fatal oral dose [4]: 2600 µg/day
